Assay results: patent US12053451B2, “Arginase inhibitors and their therapeutic applications” (OncoArendi Therapeutics S.A., priority 2016, dated 2024)
Counter-ions that a name gives are not always drawn.

Key:
[1] = target: T1, recombinant human arginase 1 (Homo sapiens, UniProt P05089); experiment: Human arginase activity assay (urea measurement), arginase 1; type: biochemical; conditions: recombinant human arginase 1, pH 7.4, 37° C., 60 min; * = value for the most potent diastereoisomer or the mixture of diastereoisomers; read-out: Activity Class (ARG I)
T1 construct: purchased Biolegend 552502
T1 sequence (P05089 1-322): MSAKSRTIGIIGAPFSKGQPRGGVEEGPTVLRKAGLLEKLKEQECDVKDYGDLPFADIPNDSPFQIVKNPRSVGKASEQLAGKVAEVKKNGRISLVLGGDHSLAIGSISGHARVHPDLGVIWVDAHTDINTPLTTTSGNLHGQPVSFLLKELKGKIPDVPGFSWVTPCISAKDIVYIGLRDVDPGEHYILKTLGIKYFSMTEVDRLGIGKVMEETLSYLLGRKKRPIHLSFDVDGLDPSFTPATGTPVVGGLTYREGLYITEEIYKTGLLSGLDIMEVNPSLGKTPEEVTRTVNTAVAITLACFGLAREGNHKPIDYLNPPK
Summary of the method: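 Arginase activity was measured as urea formed from L-arginine over 60 min at 37 °C. Reaction stopped with oPA/NED acidic reagent and absorbance read at 530 nm after 20 min colour development. Values were background-subtracted and normalised to no-compound activity, and IC50 was derived from percent-inhibition concentration-response regression.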

[2] = target: T2, recombinant human arginase 2 (Homo sapiens, UniProt P78540); experiment: Human arginase activity assay (urea measurement), arginase 2; type: biochemical; conditions: for selected examples class estimated from % of inhibition at 1 μM and 100 μM, * = most potent diastereoisomer or mixture of diastereoisomers, read-out: Activity Class (ARG II)
T2 construct: made in house; host or cells: CHO
T2 sequence (P78540 23-354): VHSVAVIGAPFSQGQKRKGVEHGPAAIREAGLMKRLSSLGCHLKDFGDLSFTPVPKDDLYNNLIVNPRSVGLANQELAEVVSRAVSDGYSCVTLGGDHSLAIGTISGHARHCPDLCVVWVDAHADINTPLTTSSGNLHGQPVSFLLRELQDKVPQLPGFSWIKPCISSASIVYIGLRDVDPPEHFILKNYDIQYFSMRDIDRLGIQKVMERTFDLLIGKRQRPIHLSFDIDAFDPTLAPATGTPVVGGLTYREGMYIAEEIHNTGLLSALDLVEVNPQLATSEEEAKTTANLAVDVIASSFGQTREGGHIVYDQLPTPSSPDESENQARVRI
Summary of the method: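 Recombinant CHO-expressed human arginase 2 converted 20 mM L-arginine with 150 μM MnCl2 in phosphate buffer pH 7.4 for 60 min at 37 °C. Urea was measured colorimetrically at 530 nm after background subtraction, and IC50 fitted. Some compounds were classed by % inhibition at 1 μM and 100 μM.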

[3] = target: T3, intracellular arginase in macrophages isolated from murine bone marrow (BMDM) (Mus musculus, UniProt Q61176); experiment: Cell-based assay: intracellular arginase in bone marrow derived macrophages (BMDM), urea level; set-up: species or system Balb/c mice; conditions: murine BMDM with M-CSF and IL-4, urea measured 24 hours after compound; * = most potent diastereoisomer or mixture of diastereoisomers; read-out: Activity Class (BMDM)
T3 construct: endogenous in cells; host or cells: primary bone marrow derived macrophages from Balb/c mice, M-CSF and IL-4 treated
T3 sequence (Q61176 1-323): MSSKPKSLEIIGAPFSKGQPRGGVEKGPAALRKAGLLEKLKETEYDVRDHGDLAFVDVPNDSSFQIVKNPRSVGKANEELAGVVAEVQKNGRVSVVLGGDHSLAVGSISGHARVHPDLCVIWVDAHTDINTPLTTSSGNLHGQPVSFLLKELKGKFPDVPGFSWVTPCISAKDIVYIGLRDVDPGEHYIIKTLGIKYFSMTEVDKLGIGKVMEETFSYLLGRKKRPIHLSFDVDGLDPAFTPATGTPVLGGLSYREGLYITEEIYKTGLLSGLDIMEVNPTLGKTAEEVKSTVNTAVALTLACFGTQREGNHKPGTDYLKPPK
Description: Efficacy of Selected Examples Towards Intracellular Arginase in Macrophages Isolated from Murine Bone Marrow—Bone Marrow Derived Macrophages (BMDM)
Materials & Methods: The assay was performed according to modified literature protocol modification (Pineda-Torra I et al., Methods Mol Biol. 2015; 1339:101-9. Mia S et al. Scand J Immunol. 2014 May; 79(5):305-14). The femurs and tibias were isolated from Balb/c mice. Bones were cleaned from all attached tissues by using sterile swab without affecting the bone structure. Bones were sterilized by immersion in 70% ethanol for 5 min and then rinsed in PBS. The sides of the bones were cut off and flush with cold sterile PBS by using 26-G needle S into a 50 mL sterile tube with a cell strainer (Falcon™, Cat. No. U00149), until bone cavity appeared white. Then the cells were centrifuged (5 min at 500×G, 4° C.), washed twice with PBS and counted. Cells were plated in Petri dish in density of 1×10^6/mL and cultured in DMEM (Gibco, Cat. No. 31331-029) with 10% FBS, 1% pen-strep and 50 ng/mL M-CSF (PeproTech, Cat. No. 315-02), (37° C., 5% CO2). After five days cells were subcultured into P96 plate (BD, Cat. No. 353072) in density of 64 000 cells/well in medium supplemented with 50 ng/mL M-CSF and 20 ng/mL IL-4 (Biomibo Cat. No. 214-1). One day later exemplary compounds (dissolved in PBS) were added in several different concentrations and 24 hours later the level of urea was measured in each well (Jung D et al., Clin Chem. 1975, 21(8):1136-40). The concentration of urea in the absence of any compound was considered as the maximum. The absorbance of cell culture media (background) was subtracted from all the values.
For selected examples the activity class for ARG2 was estimated based on % of inhibition for 1 μM and 100 μM concentration of tested compounds.

Measured: IC50

CCN(CC)C[C@@H]1CC[C@@H](CCB(O)O)C[C@]1(N)C(=O)O (racemic) [Example 30, rac-(1R,2S,5R)-1-amino-5-(2-boronoethyl)-2-((diethylamino)methyl)cyclohexanecarboxylic acid dihydrochloride]
0.1 to 1 µM: all assays above
